Counter-ions that a name gives are not always drawn.

As usually defined, the LD50 is the dose at which mortality reaches 50%. A high value points to a less toxic substance. A word on the IC50: it is the concentration that gives 50% inhibition.

T1 sequence (P14416 whole entry): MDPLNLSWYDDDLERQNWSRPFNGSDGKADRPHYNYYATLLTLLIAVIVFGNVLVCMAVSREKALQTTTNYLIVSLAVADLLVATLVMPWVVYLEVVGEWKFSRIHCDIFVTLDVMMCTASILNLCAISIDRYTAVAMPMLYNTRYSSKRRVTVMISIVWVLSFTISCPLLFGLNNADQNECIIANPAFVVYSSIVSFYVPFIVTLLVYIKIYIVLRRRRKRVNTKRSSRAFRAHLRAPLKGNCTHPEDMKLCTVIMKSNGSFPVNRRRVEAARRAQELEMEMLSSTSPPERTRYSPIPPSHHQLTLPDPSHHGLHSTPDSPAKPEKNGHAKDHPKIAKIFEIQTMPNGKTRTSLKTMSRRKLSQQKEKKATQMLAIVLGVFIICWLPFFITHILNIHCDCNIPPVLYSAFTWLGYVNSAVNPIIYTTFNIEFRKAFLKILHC

System in the first series: not listed separately
In words: in vivo. The following applies: mouse, po.
`O=C1Cc2cc(CCN3CCN(c4nsc5ccccc45)CC3)c(Cl)cc2N1` [ziprasidone] registered a 50% lethal dose (LD50) of 1600 mg/kg.

A further series addresses T1, dopamine D2 receptor (Homo sapiens, UniProt P14416).
T1 construct: expressed in transfected cells; host or cells: CHO-hD2L cells (membrane preparation)
In words: Dopamine D2 receptor-binding assay ([3H]Spiperone displacement). As to conditions: inhibition of binding of 0.4 nM [3H]Spiperone, CHO-hD2L film product, room temperature 120 minutes; read-out: IC50 (affinity to D2 receptor). The method, then:
A Dopamine D2 Receptor-Binding Assay
An isotope ligand for D2 receptor: [^3H]Spiperone (77.0 Ci/mmol); (+)Butaclamol; GF/C glass fiber media; a liposoluble scintillation solution; and the D2 receptor protein expressed by sf9 cells.
A binding assay of a film product of CHO-hD2L cells and [^3H]Spiperone is conducted in a 250 μl of 50 mM of Tris-HCl […] buffer (Ph=7.4) solution comprising 100 mM of NaCl, 1 mM of MgC12 and 1% of DMSO. A sample in duplicate containing compounds to be tested, 0.4 nM of [^3H]Spiperone and 12 ug of protein is maintained at room temperature for 120 minutes. The bound radioactive ligand is separated by flash filtration under reduced pressure using Whatman GF/B glass fiber filter pre-treated with 0.3% polyethylenelmine, and radioactivity maintained on the filter is measured using liquid scintillation spectrophotometry. The title compounds in the following examples are tested using the above test, which comprises first of all testing competitive inhibition rate of each compound at a concentration of 10 umol/L to binding of [^3H]Spiperone to D2 receptor through a rough screening; and compounds having inhibition rate higher than 95% are subjected to receptor binding assay under a series of concentrations to determine a half-inhibitory concentration (IC50, the concentration of a compound needed for inhibiting binding of 50% [^3H]Spiperone to D2 receptor). Two tubes under each concentration are measured, and each compound is subjected to two independent tests.
For “6-[4-(4-(3-(6-fluoro-benzisoxazolyl))-1-piperazinyl)-n-butoxy]-(1H)-indole [IV-3]”, the IC50 came to 12.3 nM.

In the case of `O=C1CCc2ccc(OCCCCN3CCN(c4noc5cc(Cl)ccc45)CC3)cc2N1` [I-1, 7-[4-(4-(6-chloro-benzisoxazolyl)-1-piperazinyl)-n-butoxy]-3,4-dihydro-2(1H)-quinolinone hydrochloride], the IC50 was 25.7 nM.

As for `O=C1CCc2ccc(OCCCCN3CCN(c4noc5ccc(Cl)cc45)CC3)cc2N1` [I-2, 7-[4-(4-(5-chloro-benzisoxazolyl)-1-piperazinyl)-n-butoxy]-3,4-dihydro-2(1H)-quinolinone hydrochloride], the IC50 worked out at 56.8 nM.

With `O=C1CCc2ccc(OCCCCN3CCN(c4noc5ccccc45)CC3)cc2N1` [I-3, 7-[4-(4-(benzisoxazolyl)-1-piperazinyl)-n-butoxy]-3,4-dihydro-2(1H)-quinolinone hydrochloride], the IC50 was found to be 99.3 nM.

For `O=C1CCc2ccc(OCCCCN3CCN(c4noc5cc(F)ccc45)CC3)cc2N1` [I-4, 7-[4-(4-(6-fluoro-benzisoxazolyl)-1-piperazinyl)-n-butoxy]-3,4-dihydro-2(1H)-quinolinone hydrochloride], the IC50 is 10.2 nM.

Regarding `O=C1CCc2ccc(OCCCCN3CCN(c4noc5cc(C(F)(F)F)ccc45)CC3)cc2N1` [I-5, 7-[4-(4-(6-trifluoromethyl-benzisoxazolyl)-1-piperazinyl)-n-butoxy]-3,4-dihydro-2(1H)-quinolinone hydrochloride], the IC50 turned out to be 53.6 nM.

Turning to `Cc1ccc2onc(N3CCN(CCCCOc4ccc5c(c4)NC(=O)CC5)CC3)c2c1` [I-7, 7-[4-(4-(5-methyl-benzisoxazoly)-1-piperazinyl)-n-butoxy]-3,4-dihydro-2(1H)-quinolinone hydrochloride], the IC50 turned out to be 290 nM.

For the compound `O=C1CCc2ccc(OCCCCN3CCN(c4noc5cc(O)ccc45)CC3)cc2N1` [I-8, 7-[4-(4-(6-hydroxy-benzisoxazolyl)-1-piperazinyl)-n-butoxy]-3,4-dihydro-2(1H)-quinolinone hydrochloride], the IC50 was 157 nM.

Take `COc1ccc2onc(N3CCN(CCCCOc4ccc5c(c4)NC(=O)CC5)CC3)c2c1` [I-9, 7-[4-(4-(5-methoxy-benzisoxazolyl)-1-piperazinyl)-n-butoxy]-3,4-dihydro-2(1H)-quinolinone hydrochloride]: the IC50 stood at 25 nM.

As for `O=C1CCc2ccc(OCCCCN3CCN(c4noc5ccc(Br)cc45)CC3)cc2N1` [I-11, 7-[4-(4-(5-bromo-benzisoxazolyl)-1-piperazinyl)-n-butoxy]-3,4-dihydro-2(1H)-quinolinone hydrochloride], the IC50 is 77.8 nM.

Take `COc1ccc2c(N3CCN(CCCCOc4ccc5c(c4)NC(=O)CC5)CC3)noc2c1Br` [I-12, 7-[4-(4-(7-bromo-6-methoxy-benzisoxazolyl)-1-piperazinyl)-n-butoxy]-3,4-dihydro-2(1H)-quinolinone hydrochloride]: the IC50 was found to be 10.2 nM.

Turning to `O=C1CCc2ccc(OCCCN3CCC(c4noc5cc(F)ccc45)CC3)cc2N1` [II-2, 7-[3-(4-(6-fluoro-benzisoxazolyl)-1-piperidinyl)-n-propoxy]-3,4-dihydro-2(1H)-quinolinone hydrochloride], the IC50 worked out at 16.2 nM.

With `O=C1CCc2ccc(OCCCCCN3CCC(c4noc5cc(F)ccc45)CC3)cc2N1` [II-3, 7-[5-(4-(6-fluoro-benzisoxazolyl)-1-piperidinyl)-pentyloxy]-3,4-dihydro-2(1H)-quinolinone hydrochloride], the IC50 was determined as 202 nM.

`O=C1CCc2ccc(OCCCCN3CCC(c4noc5ccccc45)CC3)cc2N1` [II-4, 7-[(4-benzisoxazolyl-1-piperidinyl)-n-butoxy]-3,4-dihydro-2(1H)-quinolinone hydrochloride]: the IC50 came out at 23.6 nM.

Consider `O=C1CCc2ccc(OCCCCN3CCC(c4noc5cc(Cl)ccc45)CC3)cc2N1` [II-5, 7-[4-(4-(6-chloro-benzisoxazolyl)-1-piperidinyl)-n-butoxy]-3,4-dihydro-2(1H)-quinolinone hydrochloride], for which the IC50 was 15.8 nM.

Take `COc1ccc2onc(C3CCN(CCCCOc4ccc5c(c4)NC(=O)CC5)CC3)c2c1` [II-6, 7-[4-(4-(5-methoxy-benzisoxazolyl)-1-piperidinyl)-n-butoxy]-3,4-dihydro-2(1H)-quinolinone hydrochloride]: the IC50 worked out at 277 nM.

Consider `O=C1CCc2ccc(OCCCCN3CCC(c4noc5ccc(F)cc45)CC3)cc2N1` [II-7, 7-[4-(4-(5-fluoro-benzisoxazolyl)-1-piperidinyl)-n-butoxy]-3,4-dihydro-2(1H)-quinolinone hydrochloride], for which the IC50 was 12.6 nM.

With `COc1cc2onc(C3CCN(CCCCOc4ccc5c(c4)NC(=O)CC5)CC3)c2cc1OC` [II-8, 7-[4-(4-(5,6-dimethoxy-benzisoxazolyl)-1-piperidinyl)-n-butoxy]-3,4-dihydro-2(1H)-quinolinone hydrochloride], the IC50 was 23.8 nM.

`O=C1CCc2ccc(OCCCCN3CCC(c4noc5ccc(O)cc45)CC3)cc2N1` [II-9, 7-[4-(5-hydroxy-benzisoxazolyl)-1-piperidinyl)-n-butoxy]-3,4-dihydro-2(1H)-quinolinone hydrochloride]: the concentration for half-maximal inhibition (IC50) came to 78.8 nM.

Regarding `O=C1CCc2ccc(OCCCCN3CCC(c4noc5cc(O)c(O)cc45)CC3)cc2N1` [II-10, 7-[4-(5,6-dihydroxy-benzisoxazolyl)-1-piperidinyl)-n-butoxy]-3,4-dihydro-2(1H)-quinolinone hydrochloride], the IC50 was determined as 45.6 nM.

On to `O=C1CCc2ccc(OCCCN3CCN(c4nsc5ccccc45)CC3)cc2N1` [III-2, 7-[3-(1,2-benzisothiazolyl)-1-piperazinyl]-n-propoxy]-3,4-dihydro-2(1H)-quinolinone hydrochloride], for which the IC50 is 76.8 nM.

Turning to `COc1ccc2c(N3CCN(CCCCOc4ccc5c(c4)NC(=O)CC5)CC3)nsc2c1` [III-4, 7-[4-(6-methoxy-1,2-benzisothiazolyl)-1-piperazinyl]-n-butoxy]-3,4-dihydro-2(1H)-quinolinone of hydrochloride], the IC50 worked out at 17.9 nM.

As to `COc1cccc2c(N3CCN(CCCCOc4ccc5c(c4)NC(=O)CC5)CC3)nsc12` [III-5, 7-[4-(7-methoxy-1,2-benzisothiazolyl)-1-piperazinyl]-n-butoxy-3,4-dihydro-2(1H)-quinolinone hydrochloride], the half-maximal inhibitory concentration (IC50) amounted to 15.8 nM.

Consider `COc1ccc2snc(N3CCN(CCCCOc4ccc5c(c4)NC(=O)CC5)CC3)c2c1` [III-6, 7-[4-(5-methoxy-1,2-benzisothiazolyl)-1-piperazinyl]-n-butoxy]-3,4-dihydro-2(1H)-quinolinone hydrochloride], for which the IC50 stood at 15 nM.

Consider `COc1cccc2snc(N3CCN(CCCCOc4ccc5c(c4)NC(=O)CC5)CC3)c12` [III-7, 7-[4-(4-methoxy-1,2-benzisothiazolyl)-1-piperazinyl]-n-butoxy]-3,4-dihydro-2(1H)-quinolinone hydrochloride], for which the IC50 was 168 nM.
